Test results from patent US8957129B2, “Aqueous coatings and paints incorporating one or more antimicrobial biosurfactants and methods for using same” (priority 2012, dated 2015).
Converted amounts (≈) assume the structure as drawn. Where two headings read alike, the source gives them in different places. Each block holds one molecule with its values, some of them ahead of it.

Assays:
[1] = system: Aspergillus niger; assay: MIC determination in broth media, two fold dilution, microtiter plates; assay type: cell-based
[2] = system: Candida albicans; assay: as above; assay type: cell-based; details: read-out: Minimum Inhibitory Concentration (MIC), alone (QA/QB)
[3] = system: Bacillus cereus; assay: as above; assay type: cell-based; details: read-out: Minimum Inhibitory Concentration (MIC), alone (QA/QB)
[4] = system: S. aureus; assay: as above; assay type: cell-based; details: Staphylococcus aureus, read-out: Minimum Inhibitory Concentration (MIC), alone (QA/QB)
[5] = system: P. aeruginosa; assay: as above; assay type: cell-based, Pseudomonas aeruginosa; details: for MIC: Pseudomonas aeruginosa
[6] = system: B. cepacia; assay: as above; assay type: cell-based, Burkhlderia cepacia; details: for MIC: Burkholderia cepacia, read-out: Minimum Inhibitory Concentration (MIC), alone (QA/QB)
[7] = system: bacteria; assay: Challenge test of combinations of Rhamnolipids with Isothiazolinones in flat paint; assay type: cell-based; details: levels: RL 250 ppm, CMIT/MIT 5 ppm, MIT 25 ppm, BIT 50 ppm
Experimental: (§1) A second batch of flat paint formulation was prepared without any surfactants. Then Rhamnolipids (RL) were post-added to this formulation. The formulation was then subjected to an initial screen challenge test using 250 to 2000 ppm RL with mixed populations of E. coli and Pseudomonas aeruginosa.
(§2) Using the same paints, a biocide at lower use level was combined with Rhamnolipid (RL) at a minimum use of 250 ppm.

[8] = system: fungi; assay: as above; assay type: cell-based; details: levels: RL 250 ppm, CMIT/MIT 5 ppm, MIT 25 ppm, BIT 50 ppm
Experimental: as §1, §2

[9] = system: E. coli; assay: MIC determination in broth media, two fold dilution, microtiter plates; assay type: cell-based; details: Escherichia coli, read-out: Minimum Inhibitory Concentration (MIC), alone (QA/QB), E. coli, substance alone
[10] = B. cepacia, substance alone, broth

MIC ([1]; substance alone, read-out: Minimum Inhibitory Concentration (MIC), alone (QA/QB)): 50 µg/mL (≈ 331 µM)
MIC ([2]; substance alone, broth): 25 µg/mL (≈ 165 µM)
MIC ([3]; substance alone, broth): 25 µg/mL (≈ 165 µM)
MIC ([4]; S. aureus, substance alone, broth): 25 µg/mL (≈ 165 µM)
MIC ([5]; P. aeruginosa, substance alone, read-out: Minimum Inhibitory Concentration (MIC), alone (QA/QB)): 25 µg/mL (≈ 165 µM)
Minimum Inhibitory Concentration (MIC), alone (QA/QB) [6, 10]: 25 ppm
MIC [6, 10]: 50 µg/mL (≈ 331 µM)
Structure (SMILES): O=c1[nH]sc2ccccc12 [BIT, Benz Isothiazolinone]
Day 1 Bacteria growth [7]: −
Day 2 Bacteria growth [7]: −
Day 5 Bacteria growth [7]: −
Day 1 Fungi growth [8]: +
Day 2 Fungi growth [8]: +
Day 5 Fungi growth [8]: +

Structure (SMILES): Cn1sccc1=O [MIT, Methyl Isothiazolinone]
MIC ([1]; read-out: Minimum Inhibitory Concentration (MIC), alone (QA/QB), Aspergillus niger, substance alone): > 100 µg/mL
Minimum Inhibitory Concentration (MIC), alone (QA/QB) ([1]; substance alone): 100 ppm
MIC [2]: 100 µg/mL (≈ 868 µM)
MIC [3]: 25 µg/mL (≈ 217 µM)
MIC [4]: 25 µg/mL (≈ 217 µM)
MIC [9]: ~25 µg/mL (≈ 217 µM)
Minimum Inhibitory Concentration (MIC), alone (QA/QB) ([5]; P. aeruginosa, substance alone): 25 ppm
MIC ([5]; read-out: Minimum Inhibitory Concentration (MIC), alone (QA/QB), P. aeruginosa, substance alone): 12.5 µg/mL (≈ 109 µM)
MIC [6]: 25 µg/mL (≈ 217 µM)
Day 1 Bacteria growth [7]: −
Day 2 Bacteria growth [7]: −
Day 5 Bacteria growth [7]: −
Day 1 Fungi growth [8]: +
Day 2 Fungi growth [8]: +
Day 5 Fungi growth [8]: −
